{"source": "patent US20250228851A1", "about": "“ALLOSTERIC INHIBITOR COMPOUNDS FOR OVERCOMING CANCER RESISTANCE” (priority 2021, published 2025)", "tested_on": "HP (Ph− ALL cultures)", "assay": "Proliferation by dye exclusion after three days, HP", "assay_type": "cell-based, human", "details": "HP, 2.5, 5 and 10 μM", "method": "FIG. 3. […] Cells were exposed to increasing concentration of 2.5, 5 and 10 μM of Compound 16. The negative control cell lines Ph− ALL HP was irresponsive to increasing concentration of Compound 16 (up to 10 μM). […] All four cell lines were plated in duplicates at the indicated concentrations, and proliferation was assessed after three days by dye exclusion of viable cells. […] The sensitivity of Ph+ cells to Compound 16 underlines the involvement of BCR-ABL in the antiproliferative mechanism. Death induction of BV173 cells is well taken as an indication of the ability of such group of compounds to overcome resistance that is originated in non-mutational grounds. However, the ability overcome the resistant T315I-BCR-ABL mutant, as shown in the dose-dependent manner of KÖ (circles), might be indicative for a non-ATP competitive mechanism of action."}
{"smiles": "COc1ccc(C(=O)N2CCN(c3cc(Nc4ccc(OC(F)(F)F)cc4)ncn3)CC2)cc1OC", "note": "[Compound 16]", "values": [{"measurement": "response (in words)", "result": "irresponsive"}]}
